# Experimental data from US20130165398A1, “CONCENTRATION-ENHANCING DRINK” (priority 2010, published 2013).
# “And” between values parts separate entries of the source, which are not always exact repeats. Equal entries are not always repeated. “Also recorded” adds a separate entry of the source.
# Experiments:
# [1] = test system: 293mitoPARP cells; assay: Cell viability by MTT assay, 293mitoPARP cells; type: cell-based, human; conditions: for cell survival with substance as extracellular precursor: NamPRT inhibited by FK866, FIG. 3A
# Experimental: (§4) Inhibitors (2 μm FK866, 2 mM 3-AB, 10 μm NBTI, 2 μm dipyridamol, 2 mM CMP, 25 μm PPADS, 1 mM Ap4A) or metabolites (100 μM NAD^+, 100 μM NAAD, 100 μM NMN, 100 μM NAMN, 100 μM NA, 100 μM NR) were added to the cell culture medium as stated. […] The treatment with inhibitors and metabolites was carried out for 24-48 h before analysis of PAR formation and the viability of the cells (72 h for 293mitoPARP cells, 96 h for HeLa S3 cells and 120 h for HepG2 cells). The viability of the cells was determined by MTT assay.
# [2] = test system: HeLa S3 cells; assay: Cell viability by MTT assay, HeLa S3 cells; type: cell-based, human; conditions: for cell survival with substance as extracellular precursor: FK866, FIG. 3B
# Experimental: as §4
# [3] = test system: mitochondrial NAD^+; assay: Mitochondrial NAD+ content by mitoPARP PAR formation, cell line not stated; type: cell-based, human; conditions: for mitochondrial PAR formation from the extracellular precursor on overexpression of NRK1: FIG. 6; for effect of the inhibitor on NR usage: NR as extracellular precursor, FIG. 4B; for function of NMN as extracellular NAD+ precursor in presence of the inhibitor: plasma membrane nucleoside transporter inhibitor added
# [4] = test system: HepG2 cells; conditions: FK866, FIG. 3C
# Experimental: Inhibitors (2 μm FK866, 2 mM 3-AB, 10 μm NBTI, 2 μm dipyridamol, 2 mM CMP, 25 μm PPADS, 1 mM Ap4A) or metabolites (100 μM NAD^+, 100 μM NAAD, 100 μM NMN, 100 μM NAMN, 100 μM NA, 100 μM NR) were added to the cell culture medium as stated. NR was prepared as described (Dölle et al., Anal, Biochem. 385 (2009), 377-379). The treatment with inhibitors and metabolites was carried out for 24-48 h before analysis of PAR formation and the viability of the cells (72 h for 293mitoPARP cells, 96 h for HeLa S3 cells and 120 h for HepG2 cells). The viability of the cells was determined by MTT assay.
# [5] = test system: 293mitoPARP cells; assay: Mitochondrial NAD+ content by mitoPARP PAR formation, 293mitoPARP cells; type: cell-based, human; conditions: NamPRT inhibited by FK866, FIG. 3A
# Experimental: (§5) Inhibitors (2 μm FK866, 2 mM 3-AB, 10 μm NBTI, 2 μm dipyridamol, 2 mM CMP, 25 μm PPADS, 1 mM Ap4A) or metabolites (100 μM NAD^+, 100 μM NAAD, 100 μM NMN, 100 μM NAMN, 100 μM NA, 100 μM NR) were added to the cell culture medium as stated. […] The treatment with inhibitors and metabolites was carried out for 24-48 h before analysis of PAR formation and the viability of the cells (72 h for 293mitoPARP cells, 96 h for HeLa S3 cells and 120 h for HepG2 cells). The viability of the cells was determined by MTT assay. 293mitoPARP cells were prepared that express a fusion protein (“mitoPARP”), consisting of EGFP and PARP1cd (poly-ADP-ribose polymerase-1) which was targeted to the mitochondrial matrix. With mitochondrial NAD^+ as substrate, these cells generate protein-bound PAR (protein-bound poly-ADP ribose) constitutively, which is visualized immunochemically. Variations in the extent of the PAR detected thereby reflect changes in the mitochondrial NAD^+ content. Likewise, the transient expression of mitoPARP in HepG2 and HeLa S3 cells was used.
# [6] = test system: HeLa S3 cells; assay: Mitochondrial NAD+ content by mitoPARP PAR formation, HeLa S3 cells; type: cell-based, human; conditions: FK866, FIG. 3B
# Experimental: as §5
# [7] = Triple test method: biomedical test battery (breathing rate, skin conductance level, heart rate), index of physiological/mental stress; type: in vivo, human
# Experimental: (§1) Hereinafter the present invention is tested in the context of the Viewpointsystem® vision analyses, using standardized methods of investigation of the Vienna test system and using biomedical studies for stress research. In this method, in the vision laboratory, the triple test method is used with extremely high accuracy for evaluating psychophysical effects up to the degree of attention (cf. EP 1 300 108 A1, WO 2008/151346 A1).
# (§2) 12 subjects were subdivided into 3 groups each of 4 subjects:
# (§3) (1) drink according to the invention (150 mg of EGCG/20 mg of NR in 10 ml of H2O; “energy” or “energy-drink” group (2) EGCG alone (150 mg of EGCG; “green tea” group) (3) placebo (H2O and mannitol; “placebo” group)
# The subjects were then studied systematically with respect to possible effects using the triple test study method, that is vps vision analyses—Vienna test system—biomedical test battery, in a standardized study, in such a manner that objective, statistically significant statements were made possible on the detection of concentration-enhancing activity of the drink according to the invention.
# In parallel thereto, the relevant biomedical characteristics such as skin conductivity, pulse were also detected and evaluated. In total, therefore, in the course of the triple-test studies, for all action-relevant evaluation situations, gaze studies were carried out in the gaze laboratory, the gaze behavior and reaction times were analyzed. The effects on information uptake, including information stress and fatigue, were documented using the standardized gaze methods by raster-analysis programs.
# After a baseline measurement, the study follows, wherein, inter alia, the following values are recorded: • heart frequency (HF: number of heart beats/minute) • blood volume pulse (BVP: measure of amount of blood which is pumped through the body per heart beat) • skin conductance value (SCL: skin conductance level/conductivity level, tonic measure, SCR: skin conductance response/phasic measure; reaction to individual stimuli)
# In the detailed analyses, at the same time the gaze and biomedical data of the study sequences [reaction test (singular stimuli), determination test (multiple optical, acoustic stimuli), film viewing (real sequences from driver viewpoint and film trailers) and semiotics (animal pictures and logos)] were evaluated. Particular attention was paid to the skin conductance level (SCL), the heart rate (pulse; HR) and the breathing rate (AF).
# After the physiological parameters were determined, for each section the statistical parameters mean/standard deviation/min/max/range/85% percentile were determined. In addition, the trend line equations were calculated.
# For further statistical detailed evaluation, the 85% percentile values were used and the relative differences were compiled using the before/after relationship. This change was totaled as a dimension number.
# After categorization of the subjects into 3 comparison groups, the dimension numbers were summed and represent an index of the physiological/mental stress of the subjects. The lower the number, the “more relaxed” the solving of the tasks by the subjects.
# [8] = Triple test method: synchronous gaze studies (Viewpointsystem vision analyses: gaze latencies, blinking, pupil adaptation); type: in vivo, human
# Experimental: as §1, §2, §3
# Using this test system, the changes in attention, vision behavior, reaction, activation and stress were determined in the three groups. In this process the real directions of gaze and gaze motions of subjects were determined in the course of the Vienna test system—in the reaction and determination test, and also in considering defined situation sequences (standardized preset image and film sequences with events) and for selected specific suitability tests—filmed and recorded from the respective field of view (cf. EP 1 300 108 A1, WO 2008/151346 A1). […]
# [9] = test system: NMNAT1; assay: Expression of NMNAT1 after adding EGCG to human cells; type: cell-based; conditions: EGCG added to human cells
# [10] = test system: human cells; assay: Cell viability by MTT assay, cell line not stated; type: cell-based; conditions: NPP inhibitor added
# [11] = CMP competes with NMN for external 5'-nucleotidase
# [12] = semiotics (animal pictures and logos), group sum
structure (smiles),measurement,setting,value
O=C(/C=C/c1cccnc1)NCCCCC1CCN(C(=O)c2ccccc2)CC1 [FK866],effect of FK866 on cell viability,[1]; FIG. 3A,cell death
same,effect of FK866 on cell viability,[2]; FIG. 3B,cell death
"NC(=O)c1ccc[n+]([C@@H]2O[C@H](COP(=O)([O-])OP(=O)(O)OC[C@H]3O[C@@H](n4cnc5c(N)ncnc54)[C@H](O)[C@@H]3O)[C@@H](O)[C@H]2O)c1 [NAD^+, nicotinamide adenine dinucleotide]",mitochondrial PAR formation from the extracellular precursor on overexpression of NRK1,[3],considerably improved
"O=C(O)c1cccnc1 [NA, nicotinic acid]",cell survival with substance as extracellular precursor,[1],able to restore
same,generation of mitochondrial NAD+ with substance as extracellular precursor,[4],not able to provide support
same,survival/viability of the cell with substance as extracellular precursor,[4],not able to provide support
same,mitochondrial NAD+ content/formation with substance as extracellular precursor,[5],able to restore
same,cell survival with substance as extracellular precursor,[2],restoration of survival
OCCN(CCO)c1nc(N2CCCCC2)c2nc(N(CCO)CCO)nc(N3CCCCC3)c2n1 [dipyridamol],effect of the inhibitor on NR usage,[3],inhibit the NR usage
same,function of NMN as extracellular NAD+ precursor in presence of the inhibitor,[3]; FIG. 4A,lost its function
"O=C(O)c1ccc[n+]([C@@H]2O[C@H](COP(=O)(O)O)[C@@H](O)[C@H]2O)c1 [NAMN, nicotinic acid mononucleotide]",cell survival with substance as extracellular precursor,[1],able to restore; also recorded: protect
same,mitochondrial NAD+ content/formation with substance as extracellular precursor,[5],able to restore; also recorded: support mitochondrial NAD^+ formation
same,cell survival with substance as extracellular precursor,[2],restoration of survival; also recorded: protect
same,mitochondrial NAD+ formation with substance as extracellular precursor,[6],support mitochondrial NAD^+ formation
same,mitochondrial NAD+ generation of NAMN in presence of dipyridamol and NBTI,"[3]; compared with NMN, FIG. 4A","sensitive to these inhibitors, although less strongly"
"NC(=O)c1ccc[n+]([C@@H]2O[C@H](COP(=O)([O-])O)[C@@H](O)[C@H]2O)c1 [NMN, nicotinamide mononucleotide]",cell survival with substance as extracellular precursor,[1],able to restore; also recorded: protect
same,mitochondrial NAD+ content/formation with substance as extracellular precursor,[5],able to restore; also recorded: support mitochondrial NAD^+ formation
same,cell survival with substance as extracellular precursor,[2],restoration of survival; also recorded: protect
same,mitochondrial NAD+ formation with substance as extracellular precursor,[6],support mitochondrial NAD^+ formation
same,mitochondrial PAR formation from the extracellular precursor on overexpression of NRK1,[3],dramatic increase
Nc1ccn([C@@H]2O[C@H](COP(=O)(O)O)[C@@H](O)[C@H]2O)c(=O)n1 [CMP],cell viability with NMN as precursor on addition of CMP,[1]; [11],decreases the cell viability
same,cell viability with NMN as precursor on addition of CMP,[2]; [11],decreases the cell viability
O=[N+]([O-])c1ccc(CSc2ncnc3c2ncn3[C@@H]2O[C@H](CO)[C@@H](O)[C@H]2O)cc1 [NBTI],effect of the inhibitor on NR usage,[3],inhibit the NR usage
same,function of NMN as extracellular NAD+ precursor in presence of the inhibitor,[3]; FIG. 4A,lost its function
"O=C(O[C@@H]1Cc2c(O)cc(O)cc2O[C@@H]1c1cc(O)c(O)c(O)c1)c1cc(O)c(O)c(O)c1 [EGCG, (2R,3R)-2-(3,4,5-trihydroxyphenyl)-3,4-dihydro-1(2H)-benzopyran-3,5,7-triol 3-(3,4,5-trihydroxybenzoate)]","AF (breathing rate) dimension number, Total","[7]; RT+DT+Film+Animals, group sum",14.21
same,"HR (heart rate) dimension number, Total","[7]; RT+DT+Film+Animals, group sum",13.90
same,"SCL (skin conductance level) dimension number, Total","[7]; RT+DT+Film+Animals, group sum",17.79
same,dimension number TOTAL,"[7]; T1+T2, individual subject, lower = more relaxed, listed as Green tea group",10.25 and 12.53 and 12.39 and 10.78
same,"dimension number TOTAL, group Mean","[7]; T1+T2, mean of 4 subjects",11.49
same,"dimension number TOTAL, group Total","[7]; T1+T2, sum of 4 subjects",45.95
same,dimension number T1,"[7]; T1: Vienna test system: reaction test/determination test, individual subject, summed relative before/after differences of 85% percentile values, lower = more relaxed, listed as Green tea group",4.81 and 5.51 and 6.86 and 5.11
same,"dimension number T1, group Mean","[7]; T1: reaction test/determination test, mean of 4 subjects",5.57
same,"dimension number T1, group Total","[7]; T1: reaction test/determination test, sum of 4 subjects",22.29
same,dimension number T2,"[7]; T2: Viewing film sequences/trailers/logos/animals, individual subject, lower = more relaxed, listed as Green tea group",5.45 and 7.02 and 5.53 and 5.67
same,"dimension number T2, group Mean","[7]; T2: film sequences/trailers/logos/animals, mean of 4 subjects",5.92
same,"dimension number T2, group Total","[7]; T2: film sequences/trailers/logos/animals, sum of 4 subjects",23.67
same,"HR (heart rate) dimension number, DT","[7]; determination test, group sum",3.44
same,"SCL (skin conductance level) dimension number, DT","[7]; determination test, group sum",4.17
same,"AF (breathing rate) dimension number, DT","[7]; determination test, group sum, listed as Group 3",3.63 and 3.67
same,"AF (breathing rate) dimension number, Film","[7]; film viewing, group sum",3.90
same,"HR (heart rate) dimension number, Film","[7]; film viewing, group sum",3.61
same,"SCL (skin conductance level) dimension number, Film","[7]; film viewing, group sum",4.90
same,"AF (breathing rate) dimension number, RT","[7]; reaction test, group sum",3.58
same,"HR (heart rate) dimension number, RT","[7]; reaction test, group sum",3.42
same,"SCL (skin conductance level) dimension number, RT","[7]; reaction test, group sum",4.05
same,"AF (breathing rate) dimension number, Animals",[7]; [12],3.10
same,"HR (heart rate) dimension number, Animals",[7]; [12],3.49
same,"SCL (skin conductance level) dimension number, Animals",[7]; [12],4.67
same,performance ability for the problem solutions (ability to be stressed),"[7]; sum parameters, tendency, especially in the active test sequences",higher performance ability
same,number of blinks,"[8]; all test methods, compared with Energy group",markedly lower
same,enhancement of gaze latencies in the after state,"[8]; real film sequences, before/after",low enhancements
same,increase of expression of NMNAT1,[9],40%
Cc1nc(N=Nc2ccc(S(=O)(=O)O)cc2S(=O)(=O)O)c(COP(=O)(O)O)c(C=O)c1O [PPADS],restoration of the mitochondrial NAD+ pool with NAD+ as extracellular precursor,"[3]; NPP inhibitor added, cell line not stated",prevents the restoration
same,survival of the cell with NAD+ as extracellular precursor,[10],prevents the restoration
